Assay results as given in patent publication US8187878B2, “Methods for increasing definitive endoderm differentiation of pluripotent human embryonic stem cells with PI-3 kinase inhibitors” (University of Georgia Research Foundation, Inc., priority 2004, dated 2012).

Key:
BG01 cell line = assay: SOX17 and AFP immunofluorescence staining; assay type: cell-based, human
Protocol: Cells to be immunostained were grown on chamber slides, and were rinsed once with 1×PBS and fixed for 10 minutes in 4% PFA/4% sucrose in PBS pH 7.4 at room temperature. They were then rinsed 3× in 1×PBS and blocked in 3% goat serum with 0.1% Triton-X100 in PBS for 1 hour at room temperature. Primary antibodies were diluted in 3% goat serum in PBS and this solution was applied overnight at 4° C. The primary antibodies used were rabbit anti-human AFP (Zymed), used at a 1:50 dilution, and rat anti-human SOX17 (obtained from Cythera, Inc.), used at 1:1000 dilution. Cells were washed for 1 hour with 3 changes of 1×PBS. Secondary antibodies were applied for 2 hours at room temperature. Secondary antibodies used were goat anti-rabbit Alexa Fluor 488 and goat anti-rat Alexa Fluor 594 (Molecular Probes), both at a 1:1000 dilution in 3% goat serum in 1×PBS. Cells were washed for 1 hour with 3 changes of 1×PBS. The chambers were removed and slides were mounted in VectaShield mounting medium with DAPI (Vector).

hESCs = assay: Kidney capsule assay of LY 294002 treated hESCs; assay type: in vivo, SCID-beige mice; conditions: relative to LY 294002 treated cells that were not implanted
Protocol: Untreated hESCs or hESCs treated for 4 days with 60 μM LY 294002 were collagenase treated to generate cell aggregates (˜50 cells/aggregate), washed in warm media, then gently resuspended in 2 ml DMEM/F12, 10% FCS and left overnight at 37° C., 10% CO2 to facilitate further aggregation. Approximately 2.5×10^6 cells were injected into the kidney capsule of 5 week old male SCID-beige mice. 6 weeks after transplantation, mice were sacrificed, and the kidneys were removed and fixed in 4% paraformaldehyde. Following fixation, kidneys were embedded in paraffin wax, sectioned and mounted onto glass slides in preparation for H&E and immunostaining. After mounting, slides underwent deparaffinization, rehydration and heat induced epitope retrieval with Trilogy (Cell Marque, CMX-833). Slides were stained using the alkaline phosphatase Vectastain ABC System (Vector Labs, AK-5002) and Vector Red substrate (Vector Labs, SK-5100). […] For fluorescence immunocytochemistry the following secondary antibodies were used; Alexa Fluor 488 goat anti-mouse IgG (Molecular Probes, A11001), Alexa Fluor 594 goat anti-rabbit IgG (Molecular Probes, A11012).

BG01 cells [1] = assay: Sox17 Q-PCR, GSK3 inhibitor on LY 294002 induced DE formation; assay type: cell-based, human; conditions: 60 μM LY 294002; BIO 0.1-5 μM, MeBIO 1-5 μM; 3-4 days
Protocol: BG01 cells were passaged on matrigel using the collagenase/trypsin method as described above and were plated on matrigel-coated chamber slides in CM. After approximately 24 hours, the medium was changed, and the cells were treated with 60 μM LY 294002, BIO, meBIO, or DMSO for approximately 3-4 days. The inhibitor BIO (Dr. Ali Brivanlou) was diluted in DMSO and was used at a concentration of approximately 0.1-5 μM. MeBIO (Dr. Ali Brivanlou) was also diluted in DMSO and used at a concentration of approximately 1-5 μM. Assays were performed in triplicate and are shown as +/−SEM.
Cells were grown in these conditions for approximately 3-4 days with a medium change every 24 hours. Cells were harvested using the collagenase/trypsin method for Q-PCR as described above

hESC = assay: Sox17 Q-PCR, MEF-CM and LY 294002 with signaling inhibitors; assay type: cell-based, human; conditions: proteins approximately 500 ng/ml, SB-43152 approximately 10 μM, SU-5402 approximately 5 μM
Protocol: Sox 17 expression was evaluated by Q-PCR under culture conditions competent to support hESC-DE formation (MEF-CM and LY 294002) in the presence or absence of Chordin (approximately 500 ng/ml), Follistatin (approximately 500 ng/ml), Lefty-A (approximately 500 ng/ml), Noggin (approximately 500 ng/ml), SB-43152 (approximately 10 μM), and SU-5402 (approximately 5 μM). Assays were performed in triplicate and are shown as +/−SEM.

BG01 cells [2] = assay: Sox17 Q-PCR, LY 294002 with conditioned medium or TGFβ members; assay type: cell-based, human; conditions: UCM, approximately 4 days
Protocol: BG01 cells were passaged from feeders using the collagenase/trypsin method and were plated on matrigel coated dishes at 1×10^5 cells/35 mm dish in unconditioned hES medium (UCM). After approximately 24 hours, the media was replaced with fresh hES medium or MEF-CM, along with LY 294002, Activin A, or Nodal as shown in FIG. 8A. LY 294002 was used at a concentration of approximately 60 μM; Activin A was used at a concentration of approximately 100 ng/ml; and Nodal was used at a concentration of approximately 1 μg/ml. Cells were treated for approximately 4 days, with a change in medium every 24 hours. Cells were harvested using the collagenase/trypsin method for Q-PCR analysis. Sox-17 Q-PCR was performed as described in Example 3.

In the case of `O=c1cc(N2CCOCC2)oc2c(-c3ccccc3)cccc12` [LY 294002], the “cell population expressing SOX17” value (BG01 cell line; counting 500 cells) is reported as 60%, the “cells expressing SOX17” value (BG01 cell line; of 500 cells counted) is reported as 296 cells and the “increase in FABP1 mRNA” value (hESCs) is reported as 1000 fold. For the same molecule, the “increase in albumin mRNA” value (hESCs) was 4500 fold.

In the case of MeBIO, the “LY 294002 induced DE formation as determined by Sox17 expression” value (BG01 cells [1]) is reported as “not”.

`O=C1Nc2cc(Br)ccc2/C1=C1/Nc2ccccc2/C1=N\O` [BIO] was tested, and the “LY 294002 induced DE formation as determined by Sox17 expression” value (BG01 cells [1]) was “blocked”.

For `NC(=O)c1ccc(-c2nc(-c3ccccn3)c(-c3ccc4c(c3)OCO4)[nH]2)cc1` [SB-43152], the “LY 294002, MEF-CM dependent Sox17 expression” value (hESC) was “suppressed”.

B1: Activin A: member of the TGFβ family (protein, UniProt P08476 311-426, looked up)
Inhibin beta A chain: GLECDGKVNICCKKQFFVSFKDIGWNDWIIAPSGYHANYCEGECPSHIAGTSGSSLSFHSTVINHYRMRGHSPFANLKSCCVPTKLRPMSMLYYDDGQNIIKKDIQNMIVEECGCS
With B1 the “Sox17 expression (fold-increase over untreated)” value (BG01 cells [2]; LY 294002 approximately 60 μM plus Activin A approximately 100 ng/ml) was “Significant Sox17 expression”.

B2: Nodal: member of the TGFβ family (protein, UniProt Q96S42 238-347, looked up)
Nodal homolog: HHLPDRSQLCRKVKFQVDFNLIGWGSWIIYPKQYNAYRCEGECPNPVGEEFHPTNHAYIQSLLKRYQPHRVPSTCCAPVKTKPLSMLYVDNGRVLLDHHKDMIVEECGCL
B2 was tested, and the “Sox17 expression (fold-increase over untreated)” value (BG01 cells [2]; LY 294002 approximately 60 μM plus Nodal approximately 1 μg/ml) was “Significant Sox17 expression”.

B3: Follistatin: inhibitor of Activin signaling (protein, UniProt P19883 30-344, looked up)
Follistatin: GNCWLRQAKNGRCQVLYKTELSKEECCSTGRLSTSWTEEDVNDNTLFKWMIFNGGAPNCIPCKETCENVDCGPGKKCRMNKKNKPRCVCAPDCSNITWKGPVCGLDGKTYRNECALLKARCKEQPELEVQYQGRCKKTCRDVFCPGSSTCVVDQTNNAYCVTCNRICPEPASSEQYLCGNDGVTYSSACHLRKATCLLGRSIGLAYEGKCIKAKSCEDIQCTGGKKCLWDFKVGRGRCSLCDELCPDSKSDEPVCASDNATYASECAMKEAACSSGVLLEVKHSGSCNSISEDTEEEEEDEDQDYSFPISSILEW
With B3 the “LY 294002, MEF-CM dependent Sox17 expression” value (hESC) was “suppressed”.
